# In US20210204544A1, “AGROCHEMICAL FORMULATIONS CONTAINING A POLYMERIC CRYSTAL GROWTH INHIBITOR” (priority 2018, published 2021):
# Experiment: Crystal growth of micronized fluopyram crystals suspended in water, with or without polymeric crystal growth inhibitor, on accelerated aging (FIG. 1)
# Type: physicochemical
# Conditions: 54° C.; observed at 4 days, 35 days, then additional 2 weeks cycling -20° C./40° C.; Rhodoline 111 at 3% w/w, HPMC at 0.2% w/w
# Description: FIG. 1 depicts the effect of polymeric crystal growth inhibitor on active ingredient while suspended in water. […] Polymeric crystal growth inhibitors were evaluated by suspending micronized fluopyram active ingredient crystal in water.
smiles,measurement,value
"O=C(NCCc1ncc(C(F)(F)F)cc1Cl)c1ccccc1C(F)(F)F [fluopyram, N-[2-[3-chloro-5-(trifluoromethyl)pyridin-2-yl]ethyl]-2-(trifluoromethyl)benzamide]",crystal growth of fluopyram crystals suspended in water,severe needle-shaped crystal growth
